This is an account of results in the supplement of paper PMC8967900.
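Further: ALL cell lines in 384-well plates, five doses spanning 10,000-fold, each plate scaled between vehicle and 100 µmol/L benzalkonium chloride controls, sDSS an adapted area-under-curve metric.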

The first assay has as its system MOLT-14. Description: selective drug sensitivity score (sDSS, relative to normal bone marrow) (sDSS (score)); higher = more potent and effective on the cell line relative to normal bone marrow cells. As to conditions: 72 h.
Regarding `CC(=O)[C@]1(O)Cc2c(O)c3c(c(O)c2[C@@H](O[C@H]2C[C@H](N)[C@H](O)[C@H](C)O2)C1)C(=O)c1ccccc1C3=O` [Idarubicin] (top concentration 1000 nM), the “selective drug sensitivity score” value turned out to be 10.5.
The same measure, in the same setting: the value for `COc1cc2nccc(Oc3ccc(NC(=O)NC4CC4)c(Cl)c3)c2cc1C(N)=O` [Lenvatinib] (top concentration 2500 nM) was -0.14; that for `N#Cc1ccc(C(c2ccc(C#N)cc2)n2cncn2)cc1` [Letrozole] (top concentration 10000 nM) was -0.04; that for `CCNCCS(=O)(=O)NC[C@@]1(c2ccccc2)SC(NC(=O)C(C)(C)C)=NN1C(=O)C(C)(C)C` [Litronesib] (top concentration 1000 nM) was 20.7.
The same measure, in the same setting: the value for `CC[C@H](C)C(=O)O[C@H]1C[C@@H](C)C=C2C=C[C@H](C)[C@H](CC[C@@H]3C[C@@H](O)CC(=O)O3)[C@H]21` [Lovastatin] (top concentration 10000 nM) was -0.1.
Same read-out and setting: the value for `Cn1cc(-c2cnn3c(N)c(Br)c([C@@H]4CCCNC4)nc23)cn1` [MK-8776] (top concentration 2500 nM) was -1.26; that for `Cc1cnc(-c2ccccc2C(C)C)nc1NCc1ccc(-n2ccnn2)cc1` [ML323] (top concentration 10000 nM) was 1.94.
`O=C(CCNC(=O)c1ccc(OC(F)(F)F)cc1)N[C@@H]1CCCc2ccccc21` [ML390] (top concentration 50000 nM): the “selective drug sensitivity score” value was found to be 16.6.
Same read-out and setting: the value for `CN(C)C(=N)NC(=N)N` [Metformin] (top concentration 100000 nM) was -0.02.
Same read-out and setting: the value for `C[C@H]1C[C@@H]2[C@H]([C@@H](O)C[C@@]3(C)[C@H]2CC[C@]3(O)C(=O)CO)[C@@]2(C)C=CC(=O)C=C12` [Methylprednisolone] (top concentration 10000 nM) was -2.3.
Same read-out and setting: the value for `FC(F)(F)c1ccc(/C=C/c2nc(COc3ccc(CCCCn4ccnn4)cc3)co2)cc1` [Mubritinib] (top concentration 1000 nM) was 4.46; that for `COc1cc2c(cc1OC(C)C)[C@H](c1ccc(Cl)cc1)N(c1ccc(N(C)C[C@H]3CC[C@H](N4CCN(C)C(=O)C4)CC3)cc1)C(=O)C2` [NVP-CGM097] (top concentration 25000 nM) was 8.36.
Consider `CCOc1cc2ncc(C#N)c(Nc3ccc(OCc4ccccn4)c(Cl)c3)c2cc1NC(=O)/C=C/CN(C)C` [Neratinib] (top concentration 1000 nM), for which the “selective drug sensitivity score” value stood at 4.28.
The same measure, in the same setting: the value for `COc1ncc(-c2ccc3nccc(-c4ccnnc4)c3c2)cc1NS(=O)(=O)c1ccc(F)cc1F` [Omipalisib] (top concentration 1000 nM) was -2.2; that for `CN1CCN(c2cc(C(=O)Nc3ccc4c(c3)-c3c(c(C(N)=O)nn3-c3ccc(F)cc3)CC4)c(Cl)cn2)CC1` [PHA-408] (top concentration 10000 nM) was -0.22; that for `OC[C@H]1O[C@@H](n2cnc3c2N=CNC[C@H]3O)C[C@@H]1O` [Pentostatin] (top concentration 10000 nM) was -0.24.
The same measure, in the same setting: the value for `CC(C)N(C[C@H]1O[C@@H](n2cnc3c(N)ncnc32)[C@H](O)[C@@H]1O)[C@H]1C[C@@H](CCc2nc3cc(C(C)(C)C)ccc3[nH]2)C1` [Pinometostat] (top concentration 1000 nM) was 0; that for `Cc1ccc(=O)n(-c2ccccc2)c1` [Pirfenidone] (top concentration 10000 nM) was 0.

For another assay, the system named is HAL-01. Described as above. Particulars: 72 h.
As to `CC(=O)[C@]1(O)Cc2c(O)c3c(c(O)c2[C@@H](O[C@H]2C[C@H](N)[C@H](O)[C@H](C)O2)C1)C(=O)c1ccccc1C3=O` [Idarubicin] (top concentration 1000 nM), the “selective drug sensitivity score” value came out at 7.24.
The same measure, in the same setting: the value for `COc1cc2nccc(Oc3ccc(NC(=O)NC4CC4)c(Cl)c3)c2cc1C(N)=O` [Lenvatinib] (top concentration 2500 nM) was 0.76; that for `N#Cc1ccc(C(c2ccc(C#N)cc2)n2cncn2)cc1` [Letrozole] (top concentration 10000 nM) was -0.04.
Same read-out and setting: the value for `CCNCCS(=O)(=O)NC[C@@]1(c2ccccc2)SC(NC(=O)C(C)(C)C)=NN1C(=O)C(C)(C)C` [Litronesib] (top concentration 1000 nM) was 1.94; that for `CC[C@H](C)C(=O)O[C@H]1C[C@@H](C)C=C2C=C[C@H](C)[C@H](CC[C@@H]3C[C@@H](O)CC(=O)O3)[C@H]21` [Lovastatin] (top concentration 10000 nM) was 2.5; that for `Cn1cc(-c2cnn3c(N)c(Br)c([C@@H]4CCCNC4)nc23)cn1` [MK-8776] (top concentration 2500 nM) was -0.46.
Same read-out and setting: the value for `Cc1cnc(-c2ccccc2C(C)C)nc1NCc1ccc(-n2ccnn2)cc1` [ML323] (top concentration 10000 nM) was 0.04; that for `O=C(CCNC(=O)c1ccc(OC(F)(F)F)cc1)N[C@@H]1CCCc2ccccc21` [ML390] (top concentration 50000 nM) was 4.9; that for `CN(C)C(=N)NC(=N)N` [Metformin] (top concentration 100000 nM) was -0.02.
With `C[C@H]1C[C@@H]2[C@H]([C@@H](O)C[C@@]3(C)[C@H]2CC[C@]3(O)C(=O)CO)[C@@]2(C)C=CC(=O)C=C12` [Methylprednisolone] (top concentration 10000 nM), the “selective drug sensitivity score” value turned out to be 1.5.
On the same count and under the same terms, the value for `FC(F)(F)c1ccc(/C=C/c2nc(COc3ccc(CCCCn4ccnn4)cc3)co2)cc1` [Mubritinib] (top concentration 1000 nM) was 3.06; that for `COc1cc2c(cc1OC(C)C)[C@H](c1ccc(Cl)cc1)N(c1ccc(N(C)C[C@H]3CC[C@H](N4CCN(C)C(=O)C4)CC3)cc1)C(=O)C2` [NVP-CGM097] (top concentration 25000 nM) was 10.6.
Same read-out and setting: the value for `CCOc1cc2ncc(C#N)c(Nc3ccc(OCc4ccccn4)c(Cl)c3)c2cc1NC(=O)/C=C/CN(C)C` [Neratinib] (top concentration 1000 nM) was -0.42; that for `COc1ncc(-c2ccc3nccc(-c4ccnnc4)c3c2)cc1NS(=O)(=O)c1ccc(F)cc1F` [Omipalisib] (top concentration 1000 nM) was 20.1.
Same read-out and setting: the value for `CN1CCN(c2cc(C(=O)Nc3ccc4c(c3)-c3c(c(C(N)=O)nn3-c3ccc(F)cc3)CC4)c(Cl)cn2)CC1` [PHA-408] (top concentration 10000 nM) was 2.58.
For the compound `OC[C@H]1O[C@@H](n2cnc3c2N=CNC[C@H]3O)C[C@@H]1O` [Pentostatin] (top concentration 10000 nM), the “selective drug sensitivity score” value turned out to be 0.36.
The same measure, in the same setting: the value for `CC(C)N(C[C@H]1O[C@@H](n2cnc3c(N)ncnc32)[C@H](O)[C@@H]1O)[C@H]1C[C@@H](CCc2nc3cc(C(C)(C)C)ccc3[nH]2)C1` [Pinometostat] (top concentration 1000 nM) was 0.
The same measure, in the same setting: the value for `Cc1ccc(=O)n(-c2ccccc2)c1` [Pirfenidone] (top concentration 10000 nM) was 0.

The next assay has as its system ALL-PO. The assay is described as above. Particulars: 72 h.
`CC(=O)[C@]1(O)Cc2c(O)c3c(c(O)c2[C@@H](O[C@H]2C[C@H](N)[C@H](O)[C@H](C)O2)C1)C(=O)c1ccccc1C3=O` [Idarubicin] (top concentration 1000 nM): the “selective drug sensitivity score” value came to 1.64.
Still for that read-out and setting: the value for `COc1cc2nccc(Oc3ccc(NC(=O)NC4CC4)c(Cl)c3)c2cc1C(N)=O` [Lenvatinib] (top concentration 2500 nM) was 3.86; that for `N#Cc1ccc(C(c2ccc(C#N)cc2)n2cncn2)cc1` [Letrozole] (top concentration 10000 nM) was -0.04; that for `CCNCCS(=O)(=O)NC[C@@]1(c2ccccc2)SC(NC(=O)C(C)(C)C)=NN1C(=O)C(C)(C)C` [Litronesib] (top concentration 1000 nM) was 14.8.
The same measure, in the same setting: the value for `CC[C@H](C)C(=O)O[C@H]1C[C@@H](C)C=C2C=C[C@H](C)[C@H](CC[C@@H]3C[C@@H](O)CC(=O)O3)[C@H]21` [Lovastatin] (top concentration 10000 nM) was -0.1; that for `Cn1cc(-c2cnn3c(N)c(Br)c([C@@H]4CCCNC4)nc23)cn1` [MK-8776] (top concentration 2500 nM) was 4.44.
The same measure, in the same setting: the value for `Cc1cnc(-c2ccccc2C(C)C)nc1NCc1ccc(-n2ccnn2)cc1` [ML323] (top concentration 10000 nM) was 3.14; that for `O=C(CCNC(=O)c1ccc(OC(F)(F)F)cc1)N[C@@H]1CCCc2ccccc21` [ML390] (top concentration 50000 nM) was 5.3.
In the case of `CN(C)C(=N)NC(=N)N` [Metformin] (top concentration 100000 nM), the “selective drug sensitivity score” value is -0.02.
